Results taken from publication PMC8007111, “Novel Potent Muscarinic Receptor Antagonists: Investigation on the Nature of Lipophilic Substituents in the 5- and/or 6-Positions of the 1,4-Dioxane Nucleus” (Journal of Medicinal Chemistry, 2020).
Where two headings read alike, the source gives them in different places.

What was measured:
hM1 mAChR [1] = biological target: T1, hM1 mAChR (Homo sapiens, UniProt P11229); assay: [3H]NMS inhibition radioligand binding, hM1 in CHO-K1 cell membranes; conditions: [3H]NMS, CHO-K1 cell membranes; mean ± S.E.M.
T1 construct: expressed in transfected cells; host or cells: CHO-K1 (membrane preparation)
T1 sequence (P11229 1-460): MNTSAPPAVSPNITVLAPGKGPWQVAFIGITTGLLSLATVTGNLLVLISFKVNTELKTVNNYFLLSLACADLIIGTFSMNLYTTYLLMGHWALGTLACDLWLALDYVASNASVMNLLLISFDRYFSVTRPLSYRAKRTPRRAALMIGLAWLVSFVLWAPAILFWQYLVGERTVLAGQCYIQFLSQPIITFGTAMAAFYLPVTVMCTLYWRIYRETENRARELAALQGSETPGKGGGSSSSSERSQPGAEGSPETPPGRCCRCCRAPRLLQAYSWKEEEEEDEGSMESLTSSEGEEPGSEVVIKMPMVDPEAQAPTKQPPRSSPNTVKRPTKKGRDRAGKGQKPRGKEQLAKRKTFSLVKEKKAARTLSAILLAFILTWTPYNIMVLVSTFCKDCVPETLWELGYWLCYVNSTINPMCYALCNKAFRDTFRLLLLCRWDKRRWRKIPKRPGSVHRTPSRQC

hM2 mAChR [2] = biological target: T2, hM2 mAChR (Homo sapiens, UniProt P08172); assay: [3H]NMS inhibition radioligand binding, hM2 in CHO-K1 cell membranes; conditions: [3H]NMS, CHO-K1 cell membranes; mean ± S.E.M.
T2 construct: expressed in transfected cells; host or cells: CHO-K1 (membrane preparation)
T2 sequence (P08172 1-466): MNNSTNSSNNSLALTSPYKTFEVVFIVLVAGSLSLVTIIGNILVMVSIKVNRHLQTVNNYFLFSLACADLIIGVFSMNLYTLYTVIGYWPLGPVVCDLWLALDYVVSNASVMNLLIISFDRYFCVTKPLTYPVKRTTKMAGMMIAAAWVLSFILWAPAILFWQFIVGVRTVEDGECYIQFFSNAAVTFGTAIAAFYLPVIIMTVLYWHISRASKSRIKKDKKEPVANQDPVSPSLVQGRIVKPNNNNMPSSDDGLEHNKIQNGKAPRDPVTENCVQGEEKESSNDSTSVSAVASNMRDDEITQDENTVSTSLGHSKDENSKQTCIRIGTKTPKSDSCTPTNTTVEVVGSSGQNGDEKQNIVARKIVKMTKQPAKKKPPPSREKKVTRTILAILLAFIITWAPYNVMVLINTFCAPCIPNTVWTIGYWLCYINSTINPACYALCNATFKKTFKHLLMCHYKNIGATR

hM3 mAChR [3] = biological target: T3, hM3 mAChR (Homo sapiens, UniProt P20309); assay: [3H]NMS inhibition radioligand binding, hM3 in CHO-K1 cell membranes; conditions: [3H]NMS, CHO-K1 cell membranes; mean ± S.E.M.
T3 construct: expressed in transfected cells; host or cells: CHO-K1 (membrane preparation)

hM4 mAChR [4] = biological target: T4, hM4 mAChR (Homo sapiens, UniProt P08173); assay: [3H]NMS inhibition radioligand binding, hM4 in CHO-K1 cell membranes; conditions: [3H]NMS, CHO-K1 cell membranes; mean ± S.E.M.
T4 construct: expressed in transfected cells; host or cells: CHO-K1 (membrane preparation)
T4 sequence (P08173 1-479): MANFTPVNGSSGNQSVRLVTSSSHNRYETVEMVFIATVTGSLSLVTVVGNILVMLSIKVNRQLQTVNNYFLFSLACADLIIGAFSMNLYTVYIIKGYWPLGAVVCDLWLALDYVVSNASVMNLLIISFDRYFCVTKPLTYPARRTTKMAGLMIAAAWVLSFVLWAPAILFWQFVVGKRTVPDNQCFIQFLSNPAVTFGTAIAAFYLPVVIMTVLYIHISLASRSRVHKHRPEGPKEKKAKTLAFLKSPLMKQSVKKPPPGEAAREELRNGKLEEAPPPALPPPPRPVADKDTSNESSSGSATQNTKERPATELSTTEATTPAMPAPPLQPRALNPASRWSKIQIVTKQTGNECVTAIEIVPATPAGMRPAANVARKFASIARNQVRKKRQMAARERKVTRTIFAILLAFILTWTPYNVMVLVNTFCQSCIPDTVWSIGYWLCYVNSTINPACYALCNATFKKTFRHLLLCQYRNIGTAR

hM5 mAChR [5] = biological target: T5, hM5 mAChR (Homo sapiens, UniProt P08912); assay: [3H]NMS inhibition radioligand binding, hM5 in CHO-K1 cell membranes; conditions: [3H]NMS, CHO-K1 cell membranes; mean ± S.E.M.
T5 construct: expressed in transfected cells; host or cells: CHO-K1 (membrane preparation)
T5 sequence (P08912 1-532): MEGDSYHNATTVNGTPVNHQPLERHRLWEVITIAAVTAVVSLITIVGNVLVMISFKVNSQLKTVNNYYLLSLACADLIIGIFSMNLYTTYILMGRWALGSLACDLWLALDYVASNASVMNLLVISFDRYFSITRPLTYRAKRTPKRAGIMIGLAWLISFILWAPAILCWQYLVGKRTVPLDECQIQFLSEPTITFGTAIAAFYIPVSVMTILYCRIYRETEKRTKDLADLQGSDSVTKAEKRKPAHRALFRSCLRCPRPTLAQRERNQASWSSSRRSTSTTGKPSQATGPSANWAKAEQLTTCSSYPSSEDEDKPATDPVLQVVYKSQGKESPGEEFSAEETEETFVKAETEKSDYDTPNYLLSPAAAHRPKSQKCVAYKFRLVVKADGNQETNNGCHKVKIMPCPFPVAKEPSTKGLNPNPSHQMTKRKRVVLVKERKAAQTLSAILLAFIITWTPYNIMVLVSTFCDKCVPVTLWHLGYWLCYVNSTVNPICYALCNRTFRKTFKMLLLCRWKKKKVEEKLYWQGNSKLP

urinary bladder = tested on: urinary bladder; parameters: method as in PMID 22243489; conditions: anesthetized rats; compared to oxybutynin; cited from earlier work
[6] = tested on: MSCs from mouse bone marrow; assay: Carbachol-induced MSC viability (MTS assay); assay type: cell-based
Protocol: It is well established that bone marrow MSC behavior is influenced by a variety of signaling systems. In context, cholinergic intramural stimuli and, in particular, muscarinic signals orchestrate MSCs viability and commitment.[11],[12] Considering also the pluripotent MSC nature and their contribution to bone, blood, and systemic homeostasis,[53] viability studies on MSCs were performed to determine the functional profile of 3b, the most interesting compound in this series. […] Successively, the efficacy of 3b in contrasting cell viability induced by the well-known mAChR agonist carbachol was evaluated. […] Further research on the intracellular mechanistic outcomes of 3b on MSCs remains mandatory.
The in vitro studies were performed by using bone marrow MSCs as a model. Male BALB/c mice (Harlan Italy SrL, Milano, Italy) (8 weeks old; body weight ∼24.5 g; n = 4) were kept in a laminar-flow cage in a standardized environmental condition. Food (Harlan, Italy), and water was supplied ad libitum. Mice were sacrificed by CO2 narcosis and cervical dislocation in accordance with the recommendations of the Italian Ethical Committee and under the supervision of authorized investigators. Long bones (femurs and tibiae) were dissected and cleaned from skin, muscle, and connective tissues as much as possible. Bones were placed in a culture dish containing sterile PBS. Then, the bone cavity was flushed in DMEM with a syringe in order to collect the bone marrow cells into a 50 mL sterile tube. […] After 2 weeks of initiating culture, cells were washed with PBS, detached by trypsinization, counted, and plated at the density of 5,000 cells/well in 96 culture plates (Costar Corp., Milano, Italy) in DMEM containing 10% HIFCS, penicillin, and streptomycin.
MSCs were treated with compound 3b (from 10^–4 to 10^–10 M) for 24 h. […] At the end of each procedure, the MSCs viability was measured by MTS assay. […] The quantity of the formazan product was directly proportional to the number of living cells in culture. The colored formazan was measured by reading the absorbance at 490 nm using a […] plate reader.

hM1 mAChR [7] = biological target: T1, hM1 mAChR; conditions: cited from earlier work
hM2 mAChR [8] = biological target: T2, hM2 mAChR; conditions: cited from earlier work
hM3 mAChR [9] = biological target: T3, hM3 mAChR; conditions: cited from earlier work
hM4 mAChR [10] = biological target: T4, hM4 mAChR; conditions: cited from earlier work
hM5 mAChR [11] = biological target: T5, hM5 mAChR; conditions: cited from earlier work

T3 sequence (P20309 whole entry): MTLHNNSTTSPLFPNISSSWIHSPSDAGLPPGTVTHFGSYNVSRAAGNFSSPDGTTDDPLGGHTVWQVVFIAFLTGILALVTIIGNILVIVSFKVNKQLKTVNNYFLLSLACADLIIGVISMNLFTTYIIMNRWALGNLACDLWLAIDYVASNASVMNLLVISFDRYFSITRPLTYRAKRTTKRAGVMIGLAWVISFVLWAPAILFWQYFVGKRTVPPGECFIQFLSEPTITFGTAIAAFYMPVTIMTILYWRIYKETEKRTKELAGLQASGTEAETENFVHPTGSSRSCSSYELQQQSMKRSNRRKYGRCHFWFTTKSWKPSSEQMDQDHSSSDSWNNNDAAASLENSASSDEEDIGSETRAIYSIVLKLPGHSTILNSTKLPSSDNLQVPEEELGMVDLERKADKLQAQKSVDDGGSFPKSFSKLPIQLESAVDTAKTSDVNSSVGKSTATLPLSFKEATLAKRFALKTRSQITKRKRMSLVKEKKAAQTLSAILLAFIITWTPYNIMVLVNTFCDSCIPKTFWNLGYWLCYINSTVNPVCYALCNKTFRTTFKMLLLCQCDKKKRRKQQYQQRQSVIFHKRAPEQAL

C[N+](C)(C)C[C@@H]1COC[C@@](c2ccccc2)(C2CCCCC2)O1.[I-] (relative stereo) [3a, 1-((2R*,6S*)-6-Cyclohexyl-6-phenyl-1,4-dioxan-2-yl)-N,N,N-trimethylmethanaminium Iodide]
pKi hM1 (hM1 mAChR [1]): 8.03 ± 0.09 | pKi hM2 (hM2 mAChR [2]): 7.36 ± 0.12 | pKi hM3 (hM3 mAChR [3]): 7.84 ± 0.13 | pKi hM4 (hM4 mAChR [4]): 7.51 ± 0.08 | pKi hM5 (hM5 mAChR [5]): 7.26 ± 0.05 | melting point: 270 to 271 °C

C[N+](C)(C)C[C@H]1COCC(c2ccccc2)(c2ccccc2)O1 [(S)-(−)-2]
reduction of volume-induced contractions of the urinary bladder (urinary bladder): more efficaciously reduced the volume-induced contractions of the urinary bladder

CN1[C@@H]2CC[C@H]1C[C@@H](OC(=O)C(CO)c1ccccc1)C2 (some centres unmarked) [atropine]
effect on carbachol-induced MSC viability ([6]; pre-incubation 1 h, then carbachol 10^–10 M for 24 h): able to contrast the increase of carbachol-induced MSC viability

C[N+](C)(C)CCOC(N)=O [carbachol]
effect of agonist on MSC viability ([6]; carbachol 10^–10 M, 24 h): increase of carbachol-induced MSC viability

O=C(O[C@H]1C[C@H]2CC[C@@H](C1)[N+]21CCCC1)C(O)(c1ccccc1)c1ccccc1 [trospium]
pKi hM1 (hM1 mAChR [7]): 8.46 | pKi hM2 (hM2 mAChR [8]): 8.94 | pKi hM3 (hM3 mAChR [9]): 8.99 | pKi hM4 (hM4 mAChR [10]): 8.84 | pKi hM5 (hM5 mAChR [11]): 8.22
